Reference: ChEMBL document CHEMBL1201862, “PubChem BioAssay data set” (2004)
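How tested: cells in 96-well plates exposed to compound for 48 hours at five concentrations. GI50 marks 50% less growth.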 Activity calls are given as the source filed them. No stated cut-off is given here; in the data, active = GI50 up to about 1.1 µM and inactive = higher.

What was measured:
Test in all cases: inhibition of tumour cell growth, NCI panel, 48 h
[1] = test system: A549
[2] = test system: BT-549
[3] = test system: CAKI-1
[4] = test system: COLO 205
[5] = test system: EKVX
[6] = test system: HL-60
[7] = test system: LOX IMVI
[8] = test system: MDA-N
[9] = test system: MOLT-4
[10] = test system: NCI-H23
[11] = test system: NCI-H522
[12] = test system: NCI/ADR-RES
[13] = test system: OVCAR-5
[14] = test system: PC-3
[15] = test system: RPMI-8226
[16] = test system: SK-MEL-5
[17] = test system: SR
[18] = test system: SW-620
[19] = test system: T47D
[20] = test system: UACC-257

Compound	GI50 [1]	GI50 [2]	GI50 [3]	GI50 [4]	GI50 [5]	GI50 [6]	GI50 [7]	GI50 [8]	GI50 [9]	GI50 [10]	GI50 [11]	GI50 [12]	GI50 [13]	GI50 [14]	GI50 [15]	GI50 [16]	GI50 [17]	GI50 [18]	GI50 [19]	GI50 [20]
CCOC(=O)C1(C(=O)OCC)[C@H](c2ccccc2)C2=NO[C@@H]3CCC[C@H]1[C@H]23	55.6 µM (inactive)	44.8 µM (inactive)	48.3 µM (inactive)	33 µM (inactive)	27.9 µM (inactive)	33.8 µM (inactive)	> 100 µM (inactive)	31.2 µM (inactive)	15.4 µM (inactive)	57.1 µM (inactive)	42.9 µM (inactive)	39.4 µM (inactive)	65.6 µM (inactive)	49.3 µM (inactive)	14.6 µM (inactive)	31.3 µM (inactive)	30.8 µM (inactive)	58.1 µM (inactive)	26.5 µM (inactive)	31.6 µM (inactive)
O=C1N=C(Nc2ccccc2Cl)N/C1=C\c1ccc(Cl)cc1Cl	98.9 µM (inactive)	> 100 µM (inactive)	> 100 µM (inactive)	47.8 µM (inactive)	> 100 µM (inactive)	0.122 µM (active)	> 100 µM (inactive)	8.11 µM (inactive)	66.8 µM (inactive)	> 100 µM (inactive)	11.9 µM (inactive)	45.6 µM (inactive)	> 100 µM (inactive)	33.7 µM (inactive)	> 100 µM (inactive)	71.9 µM (inactive)	5.3 µM (inactive)	46.3 µM (inactive)	> 100 µM (inactive)	75.3 µM (inactive)
COc1ccc2c(c1)CCC(CN1CCN(CCOC(c3ccc(F)cc3)c3ccc(F)cc3)CC1)=C2	27.5 µM (inactive)	13.6 µM (inactive)	18.9 µM (inactive)	2.14 µM (inactive)	6.07 µM (inactive)	5.53 µM (inactive)	15.6 µM (inactive)	11.8 µM (inactive)	10 µM (inactive)	14.8 µM (inactive)	13.9 µM (inactive)	11.8 µM (inactive)	23.1 µM (inactive)	16.8 µM (inactive)	4.52 µM (inactive)	5.22 µM (inactive)	3.71 µM (inactive)	22.9 µM (inactive)	8.45 µM (inactive)	9.18 µM (inactive)
O=C1Nc2c(Cl)cc(Cl)cc2/C1=N/Nc1ccccc1[N+](=O)[O-]	69.2 µM (inactive)	9.68 µM (inactive)	39.4 µM (inactive)	92.5 µM (inactive)	5.7 µM (inactive)	16.6 µM (inactive)	84.5 µM (inactive)	> 100 µM (inactive)	46.1 µM (inactive)	26.1 µM (inactive)	35.2 µM (inactive)	40.3 µM (inactive)	> 100 µM (inactive)	40.8 µM (inactive)	> 100 µM (inactive)	> 100 µM (inactive)	5.45 µM (inactive)	> 100 µM (inactive)	70.5 µM (inactive)	> 100 µM (inactive)
COc1ccc2cc(-c3ccc(OC)c(OC)c3)c(=O)oc2c1	> 100 µM (inactive)	> 100 µM (inactive)	> 100 µM (inactive)	> 100 µM (inactive)	> 100 µM (inactive)	> 100 µM (inactive)	> 100 µM (inactive)	> 100 µM (inactive)	> 100 µM (inactive)	> 100 µM (inactive)	> 100 µM (inactive)	> 100 µM (inactive)	> 100 µM (inactive)	> 100 µM (inactive)	> 100 µM (inactive)	> 100 µM (inactive)	> 100 µM (inactive)	> 100 µM (inactive)	> 100 µM (inactive)	> 100 µM (inactive)
C#CCSC(C=C=C)P(=O)(OC(C)C)OC(C)C (stereo not given)	> 100 µM (inactive)	26.4 µM (inactive)	> 100 µM (inactive)	58.5 µM (inactive)	> 100 µM (inactive)	38.1 µM (inactive)	> 100 µM (inactive)	> 100 µM (inactive)	21.5 µM (inactive)	> 100 µM (inactive)	23.3 µM (inactive)	> 100 µM (inactive)	> 100 µM (inactive)	> 100 µM (inactive)	30.3 µM (inactive)	> 100 µM (inactive)	39.5 µM (inactive)	37.4 µM (inactive)	> 100 µM (inactive)	> 100 µM (inactive)
CC1CC[C@@]2(OC1)OC1C[C@H]3[C@@H]4CC[C@H]5CC(OC6OC(CO)C(OC7OC(CO)C(O)C(O)C7OC7OC(CO)C(O)C(O)C7O)C(O)C6O)CCC5(C)[C@H]4CCC3(C)C1[C@@H]2C (stereo not given in full)	2.1 µM (inactive)	1.38 µM (inactive)	3.21 µM (inactive)	0.955 µM (active)	0.977 µM (active)	4.97 µM (inactive)	1.76 µM (inactive)	2.86 µM (inactive)	1.29 µM (inactive)	3.89 µM (inactive)	1.63 µM (inactive)	6.38 µM (inactive)	2.25 µM (inactive)	0.838 µM (active)	1.88 µM (inactive)	6.89 µM (inactive)	1.81 µM (inactive)	0.933 µM (active)	2.16 µM (inactive)	4.31 µM (inactive)
CCCCN1C(=O)C2Cc3c([nH]c4ccccc34)C(c3cccc(O)c3)N2C1=O (stereo not given)	18.4 µM (inactive)	19 µM (inactive)	18.7 µM (inactive)	19.6 µM (inactive)	17.9 µM (inactive)	22.8 µM (inactive)	18 µM (inactive)	19.2 µM (inactive)	26.7 µM (inactive)	20.3 µM (inactive)	20 µM (inactive)	18.5 µM (inactive)	18.8 µM (inactive)	18.5 µM (inactive)	23.1 µM (inactive)	17 µM (inactive)	20.5 µM (inactive)	19.9 µM (inactive)	24.4 µM (inactive)	18.7 µM (inactive)
O=C(NCCCCCCCCCCCCNC(=O)Nc1cccc2ccccc12)Nc1cccc2ccccc12	18.2 µM (inactive)	14.4 µM (inactive)	17.9 µM (inactive)	20.6 µM (inactive)	19.1 µM (inactive)	18.2 µM (inactive)	18 µM (inactive)	17.4 µM (inactive)	20.3 µM (inactive)	16.8 µM (inactive)	13.7 µM (inactive)	24.1 µM (inactive)	25.2 µM (inactive)	16.2 µM (inactive)	19.5 µM (inactive)	20.8 µM (inactive)	16.7 µM (inactive)	17.4 µM (inactive)	19.1 µM (inactive)	> 10 µM (inactive)
O=C(NCCNCCNC(=O)c1cc(-c2ccccc2)nc2ccccc12)c1cc(-c2ccccc2)nc2ccccc12	3.37 µM (inactive)	7.91 µM (inactive)	9.79 µM (inactive)	1.98 µM (inactive)	4.47 µM (inactive)	1.87 µM (inactive)	1.69 µM (inactive)	1.67 µM (inactive)	2.37 µM (inactive)	3.18 µM (inactive)	1.93 µM (inactive)	1.76 µM (inactive)	2.17 µM (inactive)	2.75 µM (inactive)	2.73 µM (inactive)	1.77 µM (inactive)	2.57 µM (inactive)	1.75 µM (inactive)	2.72 µM (inactive)	1.98 µM (inactive)
CN1CCCC(C(=O)OCC(=O)C2(O)CCC3C4CCC5=CC(=O)CCC5(C)C4C(O)CC32C)C1 (stereo not given)	16.4 µM (inactive)	16.7 µM (inactive)	24.2 µM (inactive)	18 µM (inactive)	17.1 µM (inactive)	3.69 µM (inactive)	10.9 µM (inactive)	10.7 µM (inactive)	18.7 µM (inactive)	20.5 µM (inactive)	17.3 µM (inactive)	20 µM (inactive)	18.1 µM (inactive)	11.4 µM (inactive)	4.23 µM (inactive)	19.1 µM (inactive)	1.96 µM (inactive)	6.27 µM (inactive)	10.3 µM (inactive)	18.3 µM (inactive)
